Measurements taken from patent US20190099259A1, “Method for Treatment and Prevention of Biofilm Formation During Breast Augmentation Procedures” (Integrated Healing Technologies, LLC, priority 2017, published 2019).

Tests used:
R. pickettii biofilm = experiment: biofilm assay on silicone breast implants; type: cell-based, Ralstonia Pickettii
Procedure: Biofilm assays were performed after 2 to 3 mL of 10^5 CFU/mL bacterial inoculum was added to each tube containing the respective implants and placed into a shaking incubator (250-300 rpm) at 30° C. for 24 hours, allowing for formation of biofilm on implants. After 24 hours' incubation, the implants having the biofilm were rinsed twice with Butterfields phosphate buffer. After the rinses, the implants were aseptically transferred to tubes containing 5 mL test articles for contact time points; 5 min and 2 hours. Postincubation, the implants were rinsed twice with Butterfields phosphate buffer, placed in 5 mL of sterile neutralizing buffer and sonicated at 50 to 60 Hz for 5 minutes. Tenfold serial dilutions were performed for each sample tube using neutralizing buffer as the diluent. A total of 100 μL of appropriate dilutions of each sample were plated on a nutrient agar plate in duplicates and incubated overnight. The colonies were counted postincubation. Data were evaluated by comparing the difference in CFU/mL for the implants and blank control at 5 min and 2 hours.

[1] = test system: microbial cells and spore; details: cited from earlier work

SMILES	effect in the biofilm model (R. pickettii biofilm; general statement)	potency as a germicide versus equivalent molar ratio of hypochlorite anion [1]	antibiofilm activity (R. pickettii biofilm; Biocell implant, 5 minutes)	antibiofilm activity (R. pickettii biofilm; Biocell implant, 2 hours)	antibiofilm activity (R. pickettii biofilm; Siltex implant, 5 minutes)	antibiofilm activity (R. pickettii biofilm; Siltex implant, 2 hours)	penetration of established biofilm (R. pickettii biofilm; after two hours)	antibiofilm activity (R. pickettii biofilm; smooth implant, 5 minutes)	antibiofilm activity (R. pickettii biofilm; smooth implant, 2 hours)
OCl [Hypochlorous acid, hypochlorous acid]	effective at reducing Ralstonia Pickettii bacterial numbers	80-100 times	–	–	–	–	–	–	–
[H]/N=C(\N/C(=N/[H])NCCCCCCNC(=N)NC(=N)Nc1ccc(Cl)cc1)Nc1ccc(Cl)cc1 [Chlorhexidine gluconate]	–	–	did not have antibiofilm activity	did not have antibiofilm activity	did not have antibiofilm activity	did not have antibiofilm activity	unable to penetrate established biofilm	limited reduction	complete eradication
